Laboratory results published in ChEMBL document CHEMBL1201862, “PubChem BioAssay data set” (2004).
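Assay format: 96-well plates, 48-hour exposure. GI50 = concentration required for 50% inhibition of growth.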 Calls of active or inactive are those of the source. No stated cut-off is given here; in the data, active = GI50 up to about 1.1 µM and inactive = higher.

Experiments:
Test in all cases: NCI-60 cell line screen, 48 h
ACHN = tested on: ACHN
HOP-92 = tested on: HOP-92
SF-539 = tested on: SF-539
K562 = tested on: K562
MOLT-4 = tested on: MOLT-4
M14 = tested on: M14
Malme-3M = tested on: Malme-3M
EKVX = tested on: EKVX
HT-29 = tested on: HT-29
NCI-H23 = tested on: NCI-H23
OVCAR-8 = tested on: OVCAR-8
SW-620 = tested on: SW-620
OVCAR-5 = tested on: OVCAR-5
HCT-15 = tested on: HCT-15
SK-MEL-5 = tested on: SK-MEL-5
SK-MEL-2 = tested on: SK-MEL-2
RXF 393 = tested on: RXF 393

| Structure (SMILES) | GI50 (ACHN) | GI50 (HOP-92) | GI50 (SF-539) | GI50 (K562) | GI50 (MOLT-4) | GI50 (M14) | GI50 (Malme-3M) | GI50 (EKVX) | GI50 (HT-29) | GI50 (NCI-H23) | GI50 (OVCAR-8) | GI50 (SW-620) | GI50 (OVCAR-5) | GI50 (HCT-15) | GI50 (SK-MEL-5) | GI50 (SK-MEL-2) | GI50 (RXF 393) |
| --- | --- | --- | --- | --- | --- | --- | --- | --- | --- | --- | --- | --- | --- | --- | --- | --- | --- |
| COc1ccc2nc(-c3ccccn3)cc(O)c2c1 | 92.5 µM (inactive) | 43.9 µM (inactive) | 30 µM (inactive) | 17.4 µM (inactive) | 28.8 µM (inactive) | 24.2 µM (inactive) | 24 µM (inactive) | 55.3 µM (inactive) | 42.8 µM (inactive) | 41.9 µM (inactive) | 39.8 µM (inactive) | 32 µM (inactive) | > 100 µM (inactive) |  |  |  |  |
| CC(=O)NC1C(OCc2ccccc2)OC(COC(=O)CCCCCCCCCCNC(=O)c2cccc3c(=O)c4ccccc4[nH]c23)C(O)C1OC(C)C(=O)NC(C)C(=O)NC(CCC(N)=O)C(N)=O (stereo not given) | 55.8 µM (inactive) |  | 92.9 µM (inactive) | 35.6 µM (inactive) | 47.1 µM (inactive) | > 100 µM (inactive) |  | > 100 µM (inactive) | 75.9 µM (inactive) | 46.1 µM (inactive) | 94.8 µM (inactive) | 96.6 µM (inactive) | > 100 µM (inactive) | 85.3 µM | 37.4 µM (inactive) | 50.8 µM (inactive) |  |
| CC(C)C/C(CC(=O)CCC(=O)Nc1ccccc1[N+](=O)[O-])=N\NC(=O)c1cc2ccccc2cc1O | 34.1 µM (inactive) | 64 µM (inactive) | 27.1 µM (inactive) | 25.9 µM (inactive) | 20.2 µM (inactive) | 26.6 µM (inactive) | 42.6 µM (inactive) | 34 µM (inactive) | 91.2 µM (inactive) | 50.7 µM (inactive) | 23.1 µM (inactive) | 41.4 µM (inactive) | 31 µM (inactive) | 31.6 µM | 28.1 µM (inactive) |  | 9.79 µM (inactive) |
| O=c1c2ccccc2nc(-c2ccccc2)n1NC(=S)Nc1ccc(Cl)cc1 | 77.1 µM (inactive) | > 100 µM (inactive) | > 100 µM (inactive) | 48.4 µM (inactive) | 69 µM (inactive) | > 100 µM (inactive) | > 100 µM (inactive) |  | 53.8 µM (inactive) | 53.6 µM (inactive) | > 100 µM (inactive) | > 100 µM (inactive) | > 100 µM (inactive) | > 100 µM | 36.9 µM (inactive) | > 100 µM (inactive) | 41.9 µM (inactive) |
| CCOC(=O)C1C(c2ccc([N+](=O)[O-])cc2)NC(c2ccc([N+](=O)[O-])cc2)C(C(=O)OC)S1(=O)=O (stereo not given) | > 100 µM (inactive) |  |  | > 100 µM (inactive) | > 100 µM (inactive) | > 100 µM (inactive) | > 100 µM (inactive) | > 100 µM (inactive) | > 100 µM (inactive) | > 100 µM (inactive) | > 100 µM (inactive) | > 100 µM (inactive) | > 100 µM (inactive) | > 100 µM |  | > 100 µM (inactive) | > 100 µM (inactive) |
| COc1ccc(C2CC(c3cc(C)ccc3O)=NC(N)=N2)cc1 (stereo not given) | > 100 µM (inactive) | > 100 µM (inactive) | > 100 µM (inactive) | > 100 µM (inactive) | > 100 µM (inactive) | > 100 µM (inactive) | > 100 µM (inactive) | > 100 µM (inactive) | > 100 µM (inactive) | > 100 µM (inactive) | > 100 µM (inactive) | > 100 µM (inactive) | > 100 µM (inactive) | > 100 µM |  |  | > 100 µM (inactive) |
| O=C(CSc1nnc(-c2ccc(/N=C\c3ccc(Cl)cc3)cc2)o1)Nc1ccc(Cl)cc1 | > 100 µM (inactive) |  |  | > 100 µM (inactive) | > 100 µM (inactive) | > 100 µM (inactive) | > 100 µM (inactive) | > 100 µM (inactive) | > 100 µM (inactive) | > 100 µM (inactive) | > 100 µM (inactive) | > 100 µM (inactive) |  | > 100 µM | > 100 µM (inactive) | > 100 µM (inactive) | > 100 µM (inactive) |
| N#C/C(=C/c1cccnc1)C(=O)c1ccccc1 | > 100 µM (inactive) | > 100 µM (inactive) | > 100 µM (inactive) | > 100 µM (inactive) | > 100 µM (inactive) | > 100 µM (inactive) | > 100 µM (inactive) | > 100 µM (inactive) | > 100 µM (inactive) | > 100 µM (inactive) | > 100 µM (inactive) | > 100 µM (inactive) | > 100 µM (inactive) | > 100 µM | > 100 µM (inactive) | > 100 µM (inactive) | > 100 µM (inactive) |
| CCOC12SC(Nc3ccc(C)cc3)=NN1C(=S)N(C)N=C2C (stereo not given) | > 100 µM (inactive) | > 100 µM (inactive) | > 100 µM (inactive) | > 100 µM (inactive) | > 100 µM (inactive) | > 100 µM (inactive) |  | > 100 µM (inactive) | > 100 µM (inactive) | > 100 µM (inactive) | > 100 µM (inactive) | > 100 µM (inactive) | > 100 µM (inactive) | > 100 µM | > 100 µM (inactive) |  | > 100 µM (inactive) |
| Cc1ccc([S+]([O-])C(C)C(Cl)c2ccccc2)cc1 (stereo not given) | > 100 µM (inactive) | > 100 µM (inactive) | > 100 µM (inactive) | 45.8 µM (inactive) | 55.7 µM (inactive) | > 100 µM (inactive) |  |  | 38.8 µM (inactive) | 72.3 µM (inactive) | 78 µM (inactive) | > 100 µM (inactive) | > 100 µM (inactive) | > 100 µM | 43.6 µM (inactive) | > 100 µM (inactive) | 53.7 µM (inactive) |
| O=C(COC(=O)c1cccc2c(=O)c3ccccc3[nH]c12)Nc1ccccc1 | 41.8 µM (inactive) | 45 µM (inactive) | 51.8 µM (inactive) | 33.2 µM (inactive) | 17.1 µM (inactive) | 38 µM (inactive) | 35.9 µM (inactive) | > 100 µM (inactive) | 31.8 µM (inactive) | 19.5 µM (inactive) | 37 µM (inactive) | 90.8 µM (inactive) |  |  | 19.8 µM (inactive) |  | 33.1 µM (inactive) |
| N#Cc1c2ccccc2cn1-c1ccc(F)cc1 | 27.2 µM (inactive) | 20.6 µM (inactive) | 24.8 µM (inactive) | 26.7 µM (inactive) | 27.4 µM (inactive) | 35.2 µM (inactive) | 33.7 µM (inactive) |  | 23.5 µM (inactive) | 17.7 µM (inactive) | > 10 µM (inactive) | 46.2 µM (inactive) | 45.6 µM (inactive) | > 10 µM | > 10 µM (inactive) | > 10 µM (inactive) |  |
| CSc1nc(SC)c2c(C(N)=S)n[nH]c2n1 | 24 µM (inactive) | 25.2 µM (inactive) | 23.1 µM (inactive) | 26.2 µM (inactive) | 27 µM (inactive) | 31.9 µM (inactive) | 29.8 µM (inactive) | 22.2 µM (inactive) | 33 µM (inactive) | 23.8 µM (inactive) | 28.8 µM (inactive) | 37 µM (inactive) |  | 36.2 µM | 17.9 µM (inactive) | 24 µM (inactive) | 22.8 µM (inactive) |
| CCOC(=O)/C(=C\c1ccc(N(CCC#N)CCC#N)cc1)NC(=O)c1cc([N+](=O)[O-])ccc1Cl | > 100 µM (inactive) |  | > 100 µM (inactive) | > 100 µM (inactive) | 72.6 µM (inactive) | > 100 µM (inactive) | > 100 µM (inactive) | > 100 µM (inactive) | > 100 µM (inactive) | > 100 µM (inactive) | > 100 µM (inactive) | > 100 µM (inactive) | > 100 µM (inactive) | > 100 µM | > 100 µM (inactive) | > 100 µM (inactive) | > 100 µM (inactive) |
| Cc1cc2c(c3nocc13)C(=O)c1ccccc1C2=O | > 100 µM (inactive) | 16.2 µM (inactive) | > 100 µM (inactive) | > 100 µM (inactive) | > 100 µM (inactive) | > 100 µM (inactive) | > 100 µM (inactive) | > 100 µM (inactive) | > 100 µM (inactive) | > 100 µM (inactive) | > 100 µM (inactive) | > 100 µM (inactive) | > 100 µM (inactive) | > 100 µM | > 100 µM (inactive) | > 100 µM (inactive) | > 100 µM (inactive) |
| N#CC12CCC1C1CCCCC12N1CCSCC1 (stereo not given) | > 100 µM (inactive) | > 100 µM (inactive) | > 100 µM (inactive) | 76.6 µM (inactive) | 81.8 µM (inactive) |  |  |  | > 100 µM (inactive) | > 10 µM (inactive) | > 100 µM (inactive) | > 100 µM (inactive) |  | > 100 µM |  | 35.4 µM (inactive) | 18.1 µM (inactive) |
| COc1cc(/C=C/c2ccc(OC)c(OC)c2OC)cc(OC)c1OC | 25.1 µM (inactive) | 9.35 µM (inactive) | 18.5 µM (inactive) | 23.1 µM (inactive) | 19.3 µM (inactive) | 25.4 µM (inactive) | 20.2 µM (inactive) | 21.5 µM (inactive) | 20.8 µM (inactive) | 23.6 µM (inactive) | 24.9 µM (inactive) | 29.3 µM (inactive) | 15.8 µM (inactive) | 18.5 µM | 14.7 µM (inactive) | 16.9 µM (inactive) | 22 µM (inactive) |
| [N-]=[N+]=NC1C(Br)C(=O)NC(=O)N1[C@H]1C[C@H](O)[C@@H](CO)O1 (stereo not given in full) | > 100 µM (inactive) | > 100 µM (inactive) | > 100 µM (inactive) | > 100 µM (inactive) | > 100 µM (inactive) | > 100 µM (inactive) |  | > 100 µM (inactive) | > 100 µM (inactive) | > 100 µM (inactive) | > 100 µM (inactive) | > 100 µM (inactive) | > 100 µM (inactive) |  |  | > 100 µM (inactive) | > 100 µM (inactive) |
